# In ChEMBL document CHEMBL3091308, “Bisindole alkaloids with neural anti-inflammatory activity from Gelsemium elegans” (J Nat Prod, 2013):
# Experiments:
# [1] = Cytotoxicity against human BGC823 cells at 10 uM after 72 hrs by MTT assay; type: cell-based; settings: bgc-823, 72 h
# [2] = Cytotoxicity against […] cells at 50 uM after 72 hrs by MTT assay; type: cell-based; settings: bv-2, 72 h
# [3] = tested on: A2780; test: Cytotoxicity against human A2780 cells at 10 uM after 72 hrs by MTT assay; type: cell-based; settings: a2780, 72 h
# [4] = tested on: RAW; test: Cytotoxicity against mouse RAW cells at 50 uM after 72 hrs by MTT assay; type: cell-based
# [5] = Cytotoxicity against human HCT8 cells at 10 uM after 72 hrs by MTT assay; type: cell-based; settings: hct-8, 72 h
# [6] = Cytotoxicity against human Bel7402 cells at 10 uM after 72 hrs by MTT assay; type: cell-based; settings: bel-7402, 72 h
# [7] = tested on: A549; test: Cytotoxicity against human A549 cells at 10 uM after 72 hrs by MTT assay; type: cell-based; settings: a549, 72 h
# [8] = (§1) Antiinflammatory activity in […] cells assessed as inhibition of LPS-induced NO production measured 24 hrs post LPS-challenge by spectrophotometry; type: functional, cell-based; settings: BV-2, 24 h
# [9] = tested on: BV-2; test: as §1; type: functional, cell-based
Compound,Activity [1],Activity [2],Activity [3],Activity [4],Activity [5],Activity [6],Activity [7],IC50 [8],inhibition [9]
C/C=C1\CN2C(=O)[C@]3(c4cc(-c5cc([C@@]67C[C@H]8[C@H]9CO[C@@H]6C[C@H]9/C(=C/C)CN8C7=O)c(N)cc5OC)c(OC)cc4N)C[C@H]2[C@H]2CO[C@@H]3C[C@@H]12,Non-toxic,Non-toxic,Non-toxic,Non-toxic,Non-toxic,Non-toxic,Non-toxic,,
CON1C(=O)[C@@]2(C[C@@H]3N=C([C@@](C)(O)C[C@@H](C)[C@@]45ON4[C@H]4C[C@@]6(C(=O)N(OC)c7ccccc76)[C@H]6C[C@@H]5[C@@H]4CO6)[C@@H]4C[C@H]2OC[C@H]34)c2ccccc21 (some centres undefined),Non-toxic,Non-toxic,Non-toxic,Non-toxic,Non-toxic,Non-toxic,Non-toxic,,
COc1cc(/C=C/C(=O)CC(=O)/C=C/c2ccc(O)c(OC)c2)ccc1O [CURCUMIN],,,,,,,,3.9 µM,
CON1C(=O)[C@@]2(C[C@@H]3N=C([C@](C)(O)C[C@@H](C)[C@@]45ON4[C@H]4C[C@@]6(C(=O)N(OC)c7ccccc76)[C@H]6C[C@@H]5[C@@H]4CO6)[C@@H]4C[C@H]2OC[C@H]34)c2ccccc21 (some centres undefined),Non-toxic,Non-toxic,Non-toxic,Non-toxic,Non-toxic,Non-toxic,Non-toxic,10.2 µM,Dose-dependent effect
